In PubChem BioAssay AID330 (DTP/NCI, 2004):
Values joined by “and” are separate entries in the source; they are usually repeats but may differ in a detail not shown here. Identical values can stand only once. Inconclusive results and toxic doses are left out.

Tested on: P388 leukemia ip, CD2F1 mice, survival T/C
Assay: NCI In Vivo Anticancer Drug Screen. Data for tumor model P388 Leukemia (intraperitoneal) in CD2F1 (CDF1) mice
Settings: endpoint: median survival time, higher = longer survival
Summary of the method: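 Mice carrying the transplanted tumor received test compound or vehicle. Survival was recorded in each group, and the value is the treated-group measurement divided by that of the vehicle-treated control group.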

[1] = dose: 12.5 mg/kg/injection, schedule: Q01DX005 (ip), vehicle: Klucel (hydroxypropylcellulose) (HPC)
[2] = dose: 25.0 mg/kg/injection, schedule: Q01DX009 (ip), vehicle: Klucel (hydroxypropylcellulose) (HPC)
[3] = dose: 50.0 mg/kg/injection, schedule: Q01DX009 (ip), vehicle: Klucel (hydroxypropylcellulose) (HPC)
[4] = dose: 100.0 mg/kg/injection, schedule: Q01DX009 (ip), vehicle: Klucel (hydroxypropylcellulose) (HPC)
[5] = dose: 120.0 mg/kg/injection, schedule: Q01DX005 (ip), vehicle: Klucel (hydroxypropylcellulose) (HPC)
[6] = dose: 400.0 mg/kg/injection, schedule: Q01DX009 (ip), vehicle: Klucel (hydroxypropylcellulose) (HPC)
[7] = dose: 50.0 mg/kg/injection, schedule: Q01DX005 (ip), vehicle: saline
[8] = dose: 100.0 mg/kg/injection, schedule: Q01DX005 (ip), vehicle: saline
[9] = dose: 200.0 mg/kg/injection, schedule: Q01DX005 (ip), vehicle: saline
[10] = dose: 60.0 mg/kg/injection, schedule: Q01DX005 (ip), vehicle: saline
[11] = dose: 120.0 mg/kg/injection, schedule: Q01DX005 (ip), vehicle: saline
[12] = dose: 50.0 mg/kg/injection, schedule: Q01DX009 (ip), vehicle: saline with Tween-80
[13] = dose: 100.0 mg/kg/injection, schedule: Q01DX009 (ip), vehicle: saline with Tween-80
[14] = dose: 200.0 mg/kg/injection, schedule: Q01DX009 (ip), vehicle: saline with Tween-80
[15] = dose: 50.0 mg/kg/injection, schedule: Q01DX005 (ip), vehicle: saline with Tween-80
[16] = dose: 100.0 mg/kg/injection, schedule: Q01DX005 (ip), vehicle: saline with Tween-80
[17] = dose: 50.0 mg/kg/injection, schedule: Q01DX005 (ip), vehicle: Klucel (hydroxypropylcellulose) (HPC)
[18] = dose: 100.0 mg/kg/injection, schedule: Q01DX005 (ip), vehicle: Klucel (hydroxypropylcellulose) (HPC)
[19] = dose: 200.0 mg/kg/injection, schedule: Q01DX005 (ip), vehicle: Klucel (hydroxypropylcellulose) (HPC)
[20] = dose: 200.0 mg/kg/injection, schedule: Q01DX009 (ip), vehicle: Klucel (hydroxypropylcellulose) (HPC)
[21] = dose: 25.0 mg/kg/injection, schedule: Q01DX009 (ip), vehicle: saline with Tween-80
[22] = dose: 50.0 mg/kg/injection, schedule: Q01DX009 (ip), vehicle: saline
[23] = dose: 100.0 mg/kg/injection, schedule: Q01DX009 (ip), vehicle: saline
[24] = dose: 200.0 mg/kg/injection, schedule: Q01DX009 (ip), vehicle: saline

SMILES: CCOC1NC(=O)Oc2ccccc21 (stereo not drawn)
- T/C (dose: 3.12 mg/kg/injection, schedule: Q01DX005 (ip), vehicle: Klucel (hydroxypropylcellulose) (HPC)): 100 % of control
- T/C (dose: 6.25 mg/kg/injection, schedule: Q01DX005 (ip), vehicle: Klucel (hydroxypropylcellulose) (HPC)): 96 % of control
- T/C [1]: 103 % of control and 105 % of control
- T/C (dose: 12.5 mg/kg/injection, schedule: Q01DX009 (ip), vehicle: Klucel (hydroxypropylcellulose) (HPC)): 96 % of control
- T/C [2]: 100 % of control and 105 % of control
- T/C [3]: 100 % of control and 103 % of control (2×)
- T/C (dose: 72.0 mg/kg/injection, schedule: Q01DX005 (ip), vehicle: Klucel (hydroxypropylcellulose) (HPC)): 94 % of control
- T/C [4]: 108 % of control and 109 % of control and 113 % of control
- T/C [5]: 102 % of control
- T/C [6]: 200 % of control

SMILES: CCCCCC[CH2][Sn]([Cl])([CH2]C)[O][Sn]([Cl])([CH2]C)[CH2]CCCCCC (stereo not drawn)
- T/C (dose: 12.5 mg/kg/injection, schedule: Q01DX005 (ip), vehicle: saline): 86 % of control
- T/C (dose: 25.0 mg/kg/injection, schedule: Q01DX005 (ip), vehicle: saline): 86 % of control
- T/C [7]: 98 % of control and 90 % of control
- T/C [8]: 110 % of control
- T/C [9]: 98 % of control

SMILES: CC1(C)CC(=O)C2OC21 (stereo not drawn)
- T/C (dose: 100.0 mg/kg/injection, schedule: Q04DX002 (ip), vehicle: saline): 107 % of control and 95 % of control
- T/C (dose: 200.0 mg/kg/injection, schedule: Q04DX002 (ip), vehicle: saline): 101 % of control
- T/C (dose: 400.0 mg/kg/injection, schedule: Q04DX002 (ip), vehicle: saline): 106 % of control and 107 % of control

SMILES: CC(C)[Si]1(C(C)C)N[Si](C(C)C)(C(C)C)N1
- T/C (dose: 15.0 mg/kg/injection, schedule: Q01DX005 (ip), vehicle: saline): 115 % of control
- T/C (dose: 30.0 mg/kg/injection, schedule: Q01DX005 (ip), vehicle: saline): 105 % of control
- T/C [10]: 98 % of control
- T/C [11]: 106 % of control
- T/C (dose: 240.0 mg/kg/injection, schedule: Q01DX005 (ip), vehicle: saline): 97 % of control

SMILES: O=C(/C=C/c1ccc2c(c1)OCO2)c1ccc(Cl)cc1
- T/C [12]: 86 % of control
- T/C [13]: 100 % of control
- T/C [14]: 95 % of control

SMILES: COc1ccc(C2(O)CC3CCC(C2)N3C)cc1 (stereo not drawn)
- T/C [15]: 93 % of control
- T/C [16]: 100 % of control
- T/C (dose: 200.0 mg/kg/injection, schedule: Q01DX005 (ip), vehicle: saline with Tween-80): 97 % of control

SMILES: C=C1C(C(=O)OCC)=NNc2c(C(N)=O)ncn21
- T/C (dose: 100.0 mg/kg/injection, schedule: Q04DX002 (ip), vehicle: Klucel (hydroxypropylcellulose) (HPC)): 96 % of control
- T/C (dose: 200.0 mg/kg/injection, schedule: Q04DX002 (ip), vehicle: Klucel (hydroxypropylcellulose) (HPC)): 101 % of control
- T/C (dose: 400.0 mg/kg/injection, schedule: Q04DX002 (ip), vehicle: Klucel (hydroxypropylcellulose) (HPC)): 104 % of control

SMILES: C=CCOC(=O)OCCCO
- T/C [10]: 105 % of control
- T/C [11]: 99 % of control

SMILES: O=C1CSC(=S)N1CCCN1CCOCC1
- T/C [12]: 104 % of control
- T/C [13]: 106 % of control
- T/C [14]: 101 % of control

SMILES: CCOc1ccc(C(C)c2cc3c(cc2OC)OCO3)cc1C (stereo not drawn)
- T/C [17]: 109 % of control and 113 % of control
- T/C [18]: 108 % of control and 118 % of control
- T/C [19]: 116 % of control
- T/C (dose: 400.0 mg/kg/injection, schedule: Q01DX005 (ip), vehicle: Klucel (hydroxypropylcellulose) (HPC)): 165 % of control

SMILES: C/C(=N\NC(=S)N1CCSCC1)c1ccccn1
- T/C (dose: 6.25 mg/kg/injection, schedule: Q01DX005 (ip), vehicle: saline with Tween-80): 113 % of control
- T/C (dose: 12.5 mg/kg/injection, schedule: Q01DX005 (ip), vehicle: saline with Tween-80): 91 % of control

SMILES: Cc1cc(C(=O)Nc2ccc(NC3=NCCN3)cc2)c(C)cc1C(=O)Nc1ccc(NC2=NCCN2)cc1
- T/C [1]: 101 % of control
- T/C (dose: 25.0 mg/kg/injection, schedule: Q01DX005 (ip), vehicle: Klucel (hydroxypropylcellulose) (HPC)): 106 % of control

SMILES: Nc1cc(C(CC(=O)NO)NO)ccc1[N+](=O)[O-] (stereo not drawn)
- T/C [3]: 94 % of control
- T/C [4]: 110 % of control
- T/C [20]: 102 % of control

SMILES: CNC(=O)OCc1ccccc1-c1ccccc1
- T/C [12]: 98 % of control
- T/C [13]: 97 % of control
- T/C [14]: 95 % of control

SMILES: CCOC(=O)Nc1cc(NC/C(=N\O)c2ccc3ccccc3c2)c([N+](=O)[O-])c(N)n1
- T/C (dose: 60.0 mg/kg/injection, schedule: Q01DX005 (ip), vehicle: Klucel (hydroxypropylcellulose) (HPC)): 100 % of control
- T/C [5]: 100 % of control
- T/C (dose: 240.0 mg/kg/injection, schedule: Q01DX005 (ip), vehicle: Klucel (hydroxypropylcellulose) (HPC)): 96 % of control

SMILES: Cc1cc(NC(=S)Nc2ccccc2)c(NC(=S)Nc2ccccc2)cc1C
- T/C [2]: 97 % of control
- T/C [3]: 100 % of control
- T/C [4]: 98 % of control
- T/C [20]: 92 % of control
- T/C [6]: 106 % of control

SMILES: COc1cccc2c1[C@@]1(C)C3C(=O)OC(C)(c4ccccc43)[C@@]1(C)C2=O (stereo partly drawn)
- T/C (dose: 60.0 mg/kg/injection, schedule: Q01DX005 (ip), vehicle: saline with Tween-80): 108 % of control
- T/C (dose: 120.0 mg/kg/injection, schedule: Q01DX005 (ip), vehicle: saline with Tween-80): 110 % of control
- T/C (dose: 240.0 mg/kg/injection, schedule: Q01DX005 (ip), vehicle: saline with Tween-80): 103 % of control

SMILES: O=S(=O)(C1=NOC(c2ccccc2)C1)c1ccccc1 (stereo not drawn)
- T/C [17]: 99 % of control
- T/C [18]: 95 % of control
- T/C [19]: 93 % of control

SMILES: Cn1cncc1/C=N\NC(N)=S
- T/C [21]: 102 % of control
- T/C [12]: 88 % of control
- T/C (dose: 50.0 mg/kg/injection, schedule: Q04DX003 (ip), vehicle: saline): 109 % of control
- T/C [13]: 110 % of control
- T/C (dose: 100.0 mg/kg/injection, schedule: Q04DX003 (ip), vehicle: saline): 102 % of control
- T/C (dose: 200.0 mg/kg/injection, schedule: Q04DX003 (ip), vehicle: saline): 102 % of control

SMILES: CCCCn1[nH]nc(C(=O)OC)c1=O (tested in a mixture with another compound)
- T/C [7]: 105 % of control
- T/C [8]: 102 % of control
- T/C [9]: 94 % of control

SMILES: CCOC(=O)c1cc(OCC)c(OCC)c(OCC)c1N
- T/C [12]: 100 % of control
- T/C [13]: 100 % of control
- T/C [14]: 111 % of control

SMILES: O=CNC(Cc1ccccc1)C(=O)O (stereo not drawn)
- T/C [15]: 94 % of control
- T/C [16]: 102 % of control

SMILES: CC(C)=CCCC(C)CCC1NC(C(=O)O)CS1 (stereo not drawn)
- T/C [22]: 94 % of control
- T/C [23]: 94 % of control
- T/C [24]: 95 % of control

SMILES: C1CCC2(CC1)N=C1CCCCC1S2 (stereo not drawn)
- T/C (dose: 6.25 mg/kg/injection, schedule: Q01DX005 (ip), vehicle: saline + Tween-80 + alcohol): 106 % of control
- T/C (dose: 12.5 mg/kg/injection, schedule: Q01DX005 (ip), vehicle: saline + Tween-80 + alcohol): 98 % of control
- T/C (dose: 25.0 mg/kg/injection, schedule: Q01DX005 (ip), vehicle: saline + Tween-80 + alcohol): 104 % of control

SMILES: CC1(C)OC2(C)CCC1C1C2N1C(=O)C(c1ccccc1)c1ccccc1 (stereo not drawn)
- T/C [17]: 109 % of control
- T/C [18]: 100 % of control
- T/C [19]: 109 % of control

SMILES: Cc1cc(O)c(-c2c(-c3ccccc3C(=O)O)oc3cc(C)c(C)cc23)cc1C
- T/C [22]: 89 % of control
- T/C [23]: 89 % of control
- T/C [24]: 90 % of control

SMILES: Nc1cc(C(=O)Nc2ccc(C3=NCCN3)cc2)ccc1C(=O)Nc1ccc(C2=NCCN2)cc1
- T/C (dose: 20.0 mg/kg/injection, schedule: Q04DX003 (ip), vehicle: saline with Tween-80): 168 % of control
- T/C (dose: 30.0 mg/kg/injection, schedule: Q04DX003 (ip), vehicle: saline with Tween-80): 204 % of control
- T/C (dose: 44.0 mg/kg/injection, schedule: Q04DX003 (ip), vehicle: saline with Tween-80): 277 % of control
- T/C (dose: 66.0 mg/kg/injection, schedule: Q04DX003 (ip), vehicle: saline with Tween-80): 181 % of control

SMILES: O=C(SCc1ccccc1)c1cccnc1
- T/C [21]: 105 % of control
- T/C [12]: 110 % of control
- T/C [13]: 100 % of control
